Laboratory results: patent US8546320B2, “Hsp9O-targeted anti-cancer chimeric peptide” (Kyoto University, priority 2008, dated 2013)
Read-outs that look alike come from different tables or passages of the source. Where a SMILES comes first, the peptide text is derived from it.

Legend:
Caki-1 [1] = assay type: cell-based, human; conditions: Caki-1, 68 μM
Experimental: The TPR peptide or the TPR scramble peptide was mixed with a commercially available transfection reagent (Profect-P2 or, Lipofectamine LTX) and the mixture was left to incubate at room temperature for 20 minutes, to form liposome before the complex was added to cancer cells (Caki-1 (kidney cancer cells)); the survival rate of the cells was then measured by using WST-8 solution (Cell Count Reagent SF; Nacalai Tesque, Inc.) and the results were compared with those such as in the case of the TPR scramble peptide or the liposome alone.

[2] = molecular target: T1, interaction between Hsp90 and the Hop's TPR2A domain (Homo sapiens, UniProt P07900); assay: BIACORE competition: Hsp90 pre-mixed with peptide, added to immobilized TPR2A; assay type: binding; conditions: increasing peptide concentration
T1 construct: histidine tag; made in house; host or cells: Hsp90: E. coli BL21 (pDEST17-Hsp90)
Text: It was examined whether the TPR peptide designed could compete specifically with the interaction between Hsp90, which is essential for the accurate folding of some carcinogenic protein including survivin in cancer cells, and the Hop's TPR2A domain.

K562 = assay: cells; assay type: cell-based, human
Experimental: (§1) A total of 3×10^3 cells per well were inoculated onto a 96 well plate, and incubated in a medium containing 10% FBS with 100 μl of a peptide diluted stepwise at 37° C. for 48 to 72 hours. The survival rate of the cells was measured by using WST-8 solution (Cell Count Reagent SF; Nacalai Tesque, Inc.).

U937 = assay: cells; assay type: cell-based, human
Experimental: as §1

THP-1 = assay: cells; assay type: cell-based, human
Experimental: as §1

HL-60 = assay: cells; assay type: cell-based, human
Experimental: as §1

[3] = tested on: human normal pancreas epithelial cell strain (PE); assay: Cell viability assay (WST-8), PE; assay type: cell-based; conditions: Normal cells PE, averages of two independent experiments, read-out: Anti-tumor activity, IC50
Experimental: as §1

[4] = tested on: human lung normal epithelial cell strain (WI38); assay: Cell viability assay (WST-8), WI38; assay type: cell-based; conditions: Normal cells W138, averages of two independent experiments, read-out: Anti-tumor activity, IC50
Experimental: as §1

HEK293 = assay: cells; assay type: cell-based, human; conditions: Homo sapiens, HEK293; Normal cells HEK; averages of two independent experiments; read-out: Anti-tumor activity, IC50
Experimental: (§2) A total of 3×10^3 cells were inoculated per well on a 96 well plate and cultured in a medium containing 10% FBS for 24 hours, and incubated with 100 μl of a peptide having a gradual increase in concentration at 37° C. for 48 to 72 hours. The survival rate of the cells was measured by using WST-8 solution (Cell Count Reagent SF; Nacalai Tesque, Inc.).
as §1

BXPC-3 = assay type: cell-based, human
T47D = assay type: cell-based, human; conditions: T47D
Experimental: as §2

A549 = assay type: cell-based; conditions: 24 h
MDA-MB-231 = assay type: cell-based; conditions: 24 h
[5] = tested on: Human pancreatic cancer cells (Bxpc 3); assay: Anti-tumor effect in cancer-bearing animal models, local administration; assay type: in vivo; conditions: site of administration and behavior observed
Experimental: Human pancreatic cancer cells (Bxpc 3) (5.0×10^6) were suspended in 150 μl of phosphate-buffered physiological saline (PBS) and transplanted subcutaneously into nude mice (BALB/c Slc-nu/nu). After 5 days, 150 μl of the Antp-TPR peptide suspended in PBS at a concentration of 1 mg/kg to 5 mg/kg was administered to the solid cancer every two days for a total of nine times, and the tumor contraction effect was examined. The tumor diameter was measured with calipers and the tumor volume (mm^3) was calculated according to the formula: length (mm)×minor diameter (mm)^2×0.5.

LNCap = assay type: cell-based, human; conditions: 24 h
cancer cells = assay: Cell viability assay, summary statements on cancer cells; assay type: cell-based; conditions: 24 h
OE19 = assay type: cell-based; conditions: 24 h
Experimental: as §2, §1

Caki-1 [6] = assay type: cell-based, human; conditions: 24 h
BT-20 = assay type: cell-based, human; conditions: 24 h
Experimental: as §2, §1

leukemia cell strains = assay type: cell-based, human
Experimental: as §1

[7] = Human AML cells K562, averages of two independent experiments, read-out: Anti-tumor activity, IC50
[8] = U-937, Human AML cells U937, averages of two independent experiments, read-out: Anti-tumor activity, IC50
[9] = Human AML cells THP-1, averages of two independent experiments, read-out: Anti-tumor activity, IC50
[10] = Human AML cells HL-60, averages of two independent experiments, read-out: Anti-tumor activity, IC50

Row | IC50 (K562; [7]) | IC50 (U937; [8]) | IC50 (THP-1; [9]) | IC50 (HL-60; [10]) | SMILES | Cell Survival Rate (%) (K562; K562, 1.25 μM) | Cell Survival Rate (%) (K562; K562, 2.5 μM) | Cell Survival Rate (%) (K562; K562, 5 μM) | Cell Survival Rate (%) (K562; K562, 10 μM) | Cell Survival Rate (%) (U937; U937, 1.25 μM) | Cell Survival Rate (%) (U937; U937, 2.5 μM) | Cell Survival Rate (%) (U937; U937, 5 μM) | Cell Survival Rate (%) (U937; U937, 10 μM) | Cell Survival Rate (%) (THP-1; THP-1, 1.25 μM) | Cell Survival Rate (%) (THP-1; THP-1, 2.5 μM) | Cell Survival Rate (%) (THP-1; THP-1, 5 μM) | Cell Survival Rate (%) (THP-1; THP-1, 10 μM) | Cell Survival Rate (%) (HL-60; HL-60, 1.25 μM) | Cell Survival Rate (%) (HL-60; HL-60, 2.5 μM) | Cell Survival Rate (%) (HL-60; HL-60, 5 μM) | Cell Survival Rate (%) (HL-60; HL-60, 10 μM) | other results
1 |  |  |  |  | CC[C@H](C)[C@H](NC(=O)[C@H](C)NC(=O)[C@H](C)NC(=O)[C@H](CO)NC(=O)[C@H](Cc1ccccc1)NC(=O)[C@H](CCCCN)NC(=O)[C@@H](N)CCCNC(=N)N)C(=O)NCC(=O)N[C@@H](Cc1ccc(O)cc1)C(=O)N[C@@H](CC(N)=O)C(=O)N[C@@H](CCCCN)C(=O)N[C@@H](Cc1ccc(O)cc1)C(=O)O [TPR scramble, reference compound] (H-RKFSAAIGYNKY-OH; N-terminus and C-terminus assumed) |  |  |  |  |  |  |  |  |  |  |  |  |  |  |  |  | killing effect after introduction with transfection reagent (Caki-1 [1]): not observed; inhibition of the interaction between Hsp90 and TPR2A [2]: does not inhibit the interaction completely
2 | 0.7 µM | 0.7 µM | 0.75 µM | 1.05 µM | C=CCNC1=C2C[C@@H](C)C[C@H](OC)[C@H](O)[C@@H](C)/C=C(\C)[C@H](OC(N)=O)[C@@H](OC)/C=C\C=C(/C)C(=O)NC(=CC1=O)C2=O [Peptide 17-AAG, 17-allylaminogeldanamycin] | 5.67% | 5.08% | 5.67% | 6.35% | 5.21% | 4.03% | 4.97% | 4.16% | 6.80% | 5.49% | 6.56% | 7.76% | 37.03% | 19.70% | 8.37% | 3.87% | IC50 [3]: 0.8 µM; IC50 [4]: 0.7 µM; IC50 (HEK293): 0.7 µM
3 | 0.75 µM | 0.65 µM | 0.7 µM | 0.7 µM | COC1=C2C[C@@H](C)C[C@H](OC)[C@H](O)[C@@H](C)/C=C(\C)[C@H](OC(N)=O)[C@@H](OC)/C=C\C=C(/C)C(=O)NC(=CC1=O)C2=O [Geldanamycin, geldanamycin] | 20.08% | 9.75% | 7.07% | 6.60% | 5.40% | 6.26% | 4.65% | 5.78% | 6.20% | 5.01% | 4.49% | 7.12% | 6.65% | 6.02% | 5.03% | 5.23% | IC50 [3]: 0.7 µM; IC50 [4]: 1 µM; IC50 (HEK293): 0.7 µM
4 |  |  |  |  | CC[C@H](C)[C@H](NC(=O)[C@H](CCCNC(=N)N)NC(=O)[C@H](C)NC(=O)[C@H](Cc1ccc(O)cc1)NC(=O)[C@H](C)NC(=O)[C@H](CCCCN)NC(=O)[C@H](CCCNC(=N)N)NC(=O)[C@H](CCCNC(=N)N)NC(=O)[C@H](CCCNC(=N)N)NC(=O)[C@H](CCC(N)=O)NC(=O)[C@H](CCCNC(=N)N)NC(=O)[C@H](CCCNC(=N)N)NC(=O)[C@H](CCCCN)NC(=O)[C@H](CCCCN)NC(=O)[C@H](CCCNC(=N)N)NC(=O)CNC(=O)[C@@H](N)Cc1ccc(O)cc1)C(=O)NCC(=O)N[C@@H](CC(N)=O)C(=O)N[C@@H](CO)C(=O)N[C@@H](Cc1ccc(O)cc1)C(=O)N[C@@H](Cc1ccccc1)C(=O)N[C@@H](CCCCN)C(=O)O (H-YGRKKRRQRRRKAYARIGNSYFK-OH) |  |  |  |  |  |  |  |  |  |  |  |  |  |  |  |  | Cell Survival Rate (%) (BXPC-3; Bxpc3, 21 μM): 82.25%; Cell Survival Rate (%) (BXPC-3; Bxpc3, 42 μM): 73.08%; Cell Survival Rate (%) (BXPC-3; Bxpc3, 84 μM): 60.49%; Cell Survival Rate (%) (BXPC-3; Bxpc3, 168 μM): 47.24%; Cell Survival Rate (%) (T47D; 21 μM): 77.68%; Cell Survival Rate (%) (T47D; 42 μM): 58.60%; Cell Survival Rate (%) (T47D; 84 μM): 74.23%; Cell Survival Rate (%) (T47D; 168 μM): 17.92%
5 |  |  |  |  | CC[C@H](C)[C@H](NC(=O)[C@H](CCCNC(=N)N)NC(=O)[C@H](C)NC(=O)[C@H](Cc1ccc(O)cc1)NC(=O)[C@H](C)NC(=O)[C@H](CCCCN)NC(=O)[C@H](CCCCN)NC(=O)[C@H](CCCCN)NC(=O)[C@H](Cc1c[nH]c2ccccc12)NC(=O)[C@H](CCCCN)NC(=O)[C@H](CCSC)NC(=O)[C@H](CCCNC(=N)N)NC(=O)[C@H](CCCNC(=N)N)NC(=O)[C@H](CC(N)=O)NC(=O)[C@H](CCC(N)=O)NC(=O)[C@H](Cc1ccccc1)NC(=O)[C@H](Cc1c[nH]c2ccccc12)NC(=O)[C@@H](NC(=O)[C@H](CCCCN)NC(=O)[C@@H](NC(=O)[C@H](CCC(N)=O)NC(=O)[C@@H](N)CCCNC(=N)N)[C@@H](C)CC)[C@@H](C)CC)C(=O)NCC(=O)N[C@@H](CC(N)=O)C(=O)N[C@@H](CO)C(=O)N[C@@H](Cc1ccc(O)cc1)C(=O)N[C@@H](Cc1ccccc1)C(=O)N[C@@H](CCCCN)C(=O)O [Antp-TPR] (H-RQIKIWFQNRRMKWKKKAYARIGNSYFK-OH; N-terminus and C-terminus assumed) |  |  |  |  |  |  |  |  |  |  |  |  |  |  |  |  | IC50 (A549): 52.9 ± 2.5 µM; IC50 (MDA-MB-231): 56.9 ± 12.3 µM; toxicity to the mice [5]: little toxicity to the mice; IC50 (LNCap): 49.1 ± 3 µM; IC50 (cancer cells): 20 to 60 µM; IC50 (K562): 54.2 µM; Cell Survival Rate (%) (U937): 23.24%; IC50 (U937): 25.2 µM; IC50 (THP-1): 24.7 µM; IC50 (HL-60): 46.4 µM; IC50 (OE19): 29.9 ± 3.4 µM; IC50 (BXPC-3; 24 h): 39.8 ± 2.2 µM; IC50 (Caki-1 [6]): 43.3 ± 3 µM; IC50 (BT-20): 32.8 ± 5.5 µM; IC50 (leukemia cell strains): 20 to 60 µM
